These are literature values, as cited in publication PMC3156379 (Bioorganic & medicinal chemistry letters, 2011).

As a reminder, the pKd is the Kd on a negative log10 scale, so that one unit is a factor of ten.

One data set has as its target T1, MAG (Homo sapiens, UniProt P20916).
T1 sequence (P20916 20-626): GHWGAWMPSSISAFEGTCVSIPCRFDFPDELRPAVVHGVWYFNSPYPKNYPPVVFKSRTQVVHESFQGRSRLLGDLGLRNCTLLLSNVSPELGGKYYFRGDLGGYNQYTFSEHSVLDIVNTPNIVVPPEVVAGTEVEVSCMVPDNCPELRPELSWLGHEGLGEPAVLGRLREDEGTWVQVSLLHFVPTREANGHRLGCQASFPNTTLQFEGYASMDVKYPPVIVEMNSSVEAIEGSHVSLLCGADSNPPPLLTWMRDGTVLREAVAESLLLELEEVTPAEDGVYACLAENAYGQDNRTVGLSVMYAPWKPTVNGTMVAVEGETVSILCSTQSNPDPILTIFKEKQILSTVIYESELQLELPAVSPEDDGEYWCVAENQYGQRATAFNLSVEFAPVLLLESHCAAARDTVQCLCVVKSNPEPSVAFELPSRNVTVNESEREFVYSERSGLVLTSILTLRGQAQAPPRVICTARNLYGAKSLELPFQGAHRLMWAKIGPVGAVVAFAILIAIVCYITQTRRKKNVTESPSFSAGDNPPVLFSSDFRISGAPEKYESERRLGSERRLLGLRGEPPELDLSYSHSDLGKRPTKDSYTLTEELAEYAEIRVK
To be noted: read-out: Kd for MAG; structures β-linked to synthetic aglycons.

Data set [1] has as its system MAG inhibition of neurite outgrowth. To be noted: in vitro cell culture model.

pKd: −log10 of the molar value.

For the compound `CC(=O)N[C@H]1[C@H](OCC[Si](C)(C)C)O[C@H](CO[C@]2(C(=O)O)C[C@H](O)[C@@H](NC(C)=O)[C@H]([C@H](O)[C@H](O)CO)O2)[C@H](O)[C@@H]1O[C@@H]1O[C@H](CO)[C@H](O)[C@H](O[C@]2(C(=O)O)C[C@H](O)[C@@H](NC(C)=O)[C@H]([C@H](O)[C@H](O)CO)O2)[C@H]1O` [Compound 1], on MAG, the pKd was 3.09. Turning to `COC(=O)[C@@H](NC(C)=O)[C@@H](C)O[C@H]1O[C@H](CO)[C@H](O)[C@H](O[C@@H]2O[C@H](CO)[C@H](O)[C@H](O[C@]3(C(=O)[O-])C[C@H](O)[C@@H](NC(C)=O)[C@H]([C@H](O)[C@H](O)CO)O3)[C@H]2O)[C@H]1NC(C)=O.[Na+]` [Compound 11a, sialyl-T-antigen], the “reversing MAG inhibition of neurite outgrowth” value in data set [1] is given as “exhibited activity for reversing MAG inhibition of neurite outgrowth”.
